From patent US20120316199A1, “COMPOSITIONS AND METHODS FOR TREATING, CONTROLLING, REDUCING, OR AMELIORATING INFLAMMATORY PAIN” (priority 2011, published 2012)
Several values for one entry are separate records, joined by “and”; a condition that tells them apart may be missing. Equal entries are not always repeated.

Tests used:
[1] = system: New Zealand White rabbits; test: Mortality/morbidity in New Zealand White rabbits, topical dosing four times daily; assay type: in vivo; conditions: for Mortality (rabbits that died or were euthanized between Days 11 and 33): right eye four times daily, Days 1-31
Description: (§1) On Days 1-31, animals received daily topical doses of the appropriate test article into the right eye. Animals were dosed four times per day, with doses administered 2 hours apart. Doses were administered using a calibrated 50-μL pipette. The eyelids were held close for 10 seconds immediately following dosing. The time of each dose administration was recorded.
Animals determined to be moribund were euthanized with an intravenous injection of commercial euthanasia solution.

[2] = system: anterior chamber cells and flare following cataract surgery; test: Clinical study after cataract surgery: resolution of anterior chamber (AC) cells and flare; assay type: in vivo, human; conditions: 2% QID, 3% QD, 3% BID, and 3% QID
Text: There were 8 treatment groups in this study, consisting of three drug doses, vehicle and three dosing frequencies (see also Table 4-1): • Group A: 1% BOL-303242-X ophthalmic suspension, two times per day (BID) • Group B: 2% BOL-303242-X ophthalmic suspension, one time per day (QD) • Group C: 2% BOL-303242-X ophthalmic suspension, BID • Group D: 2% BOL-303242-X ophthalmic suspension, four times per day (QID) • Group E: 3% BOL-303242-X ophthalmic suspension, QD • Group F: 3% BOL-303242-X ophthalmic suspension, BID • Group G: 3% BOL-303242-X ophthalmic suspension, QID • Group H: Vehicle for BOL-303242-X (divided equally into QID, BID, and QD)
Subjects self-administered study drug, instilling 1 to 2 drops of study drug into the study eye: QID at approximately 4 hour intervals, BID at approximately 12 hour intervals, or QD once in the morning, for 14 days. The initial dose occurred in the clinic at Visit 3 and the final dose was on the day before Visit 6 (postoperative Day 15±1 day). Subjects were examined and evaluated according to the following schedule:
Visit 1 (screening), Visit 2 (cataract surgery), Visit 3 (postoperative Day 1), Visit 4 (postoperative Day 3±1 day), Visit 5 (postoperative Day 8±1 day), Visit 6 (postoperative Day 15±1 day), Visit 7 (postoperative Day 18±1 day). […]

[3] = system: PGE2 release by IL-1β-induced human conjunctival fibroblasts (HConF); test: IL-1β-induced PGE2 release in human conjunctival fibroblasts (ELISA); assay type: cell-based; conditions: 3, 10, 30, 100, 300, 1000 nM, 18 hours; ELISA (FIG. 6)
Description: Human conjunctival fibroblasts (HConF) were seeded in 24-well plates in complete Fibroblast Medium (FM) which contained 2% fetal bovine serum (FBS) and Fibroblast Growth Supplement (FGS). After reaching confluence (about 95%), cells were conditioned in basic FM that had been supplemented with 0.5% charcoal-dextran treated fetal bovine serum (CD-FBS) and without Fibroblast Growth Supplement (FGS) for 24 hours. […] Plates were performed in triplicate. Culture media were evaluated for PGE, release by ELISA.

[4] = system: IL-1β-stimulated cytokine expression in primary human corneal epithelial cells; test: IL-1β-stimulated cytokine production in primary human corneal epithelial cells (30-cytokine Luminex kit); conditions: HCECs
Description: Primary HCECs were seeded in 24-well plates. […] Each treatment was performed in triplicate. Media were collected and used for determination of cytokine content using a 30-cytokine Luminex kit. Cell viability was determined by alamarBlue assay (LP06013).
Median fluorescence intensity (MFI) was used to obtain the concentration of each cytokines in pg/ml based on the standard curve of each cytokine assayed by Luminex. The linear range of the standard curve for each cytokine was used for determination of cytokine concentration. Duplicate values for each sample were averaged. Data were expressed as mean±SD. Statistical analysis was performed using one-way ANOVA-Dunnett's test, and P<0.05 was considered statistically significant.

[5] = system: iris and conjunctival vessels, anterior chamber; test: Clinical evaluation by slit lamp (clinical score), rabbit paracentesis model; assay type: in vivo, Rabbit (New Zealand); parameters: key to Clinical Score −180 min / Clinical Score −5 min / Clinical Score +115 min: 0=normal; 1=discrete dilatation of iris and conjunctival vessels; 2=moderate dilatation of iris and conjunctival vessels; 3=intense iridal hyperemia with flare in the anterior chamber; 4=intense iridal hyperemia with flare in the anterior chamber and presence of fibrinous exudates; conditions: for Clinical Score −5 min: 5 min before the first paracentesis; for Clinical Score −5 min / Clinical Score +115 min / Clinical Score −180 min: raw data per eye; for Clinical Score +115 min: 5 min before the second paracentesis; for Clinical Score −180 min: basal
[6] = system: rabbit eyes; test: Ophthalmic observations (slit lamp, McDonald Shadduck scores) in New Zealand White rabbits; assay type: in vivo; parameters: key to Ophthalmic Observation (Slit-Lamp): AN = Appeared normal; key to Cornea Score: CORNEA 1 = Some loss of transparency. Only the epithelium and/or the anterior half of the stoma are involved. The underlying structures are clearly visible although some cloudiness may be readily apparent
Description: Prior to placement on study, each animal underwent a pre-treatment ophthalmic examination (slit lamp and indirect ophthalmoscopy). Observations were scored according to the McDonald Shadduck system and recorded using a standardized data collection sheet.
as §1
Ophthalmic examinations (slit lamp) were performed prior to the first dosing on Days 5, 12, 22, 26, and 33. Ocular findings were scored according to the McDonald Shadduck system and recorded using a standardized data collection sheet.

[7] = Group D, 1 mg/g (0.05 mg/dose) 4 x daily, individual rabbit
[8] = 0.1% formulation, +115 min, N=8 eyes
[9] = 0.5% formulation, +115 min, N=8 eyes
[10] = Group B, 10 mg/g, treated right eye, individual animals
[11] = Group C, 5 mg/g, treated right eye, individual animals

## Cc1ccc2c(NC[C@](O)(CC(C)(C)c3cc(F)cc4c3OCC4)C(F)(F)F)cccc2n1 [BOL-303242-X, mapracorat]
[1]; 0.05 mg/dose (0.1% dexamethasone suspension or 1 mg/g BOL-303242-X)
  Mortality (rabbits that died or were euthanized between Days 11 and 33): one of ten
[1]; 5 mg/g suspension ([…])
  Mortality (rabbits that died or were euthanized between Days 11 and 33): two of ten
[1]; 10 mg/g (0.5 mg/dose), one surviving rabbit (Group B, No. 3048)
  Morbidity noted in a surviving rabbit: diarrhea on Day 18
[1]; 10 mg/g suspension (0.5 mg/dose)
  Mortality (rabbits that died or were euthanized between Days 11 and 33): one of ten
[1]; 0.05, 0.25, or 0.5 mg/dose four times daily up to 31 days
  Mortality rate per dose level: 1-2 deaths per 10 rabbits
[1]; Group B, 10 mg/g (0.5 mg/dose) 4 x daily, individual rabbit
  Day of Death (day euthanized or found dead): 11
[1]; [7]
  Day of Death (day euthanized or found dead): 29
  Recorded Notes on death: Found dead.
[2]
  improvements in AC cells and Grade 0 pain at Visit 5 (postoperative Day 8): statistically significant improvements
[3]
  Inhibition of PGE2 production by IL-1β-induced HConF: successfully inhibits
[4]
  Potency relative to dexamethasone, inhibition of IL-1β-stimulated IL-6, IL-7, TGF-α, TNF-α, VGEF, and MCP-1: comparable potency
  Potency relative to dexamethasone, inhibition of IL-1β-stimulated production of G-CSF: more potent than dexamethasone
  Potency relative to dexamethasone, inhibition of IL-1β-stimulated production of GM-CSF, IL-8, and RANTES: somewhat less potent than dexamethasone
[4]; 10 ng/ml IL-1β, 18 h, comparable potency of both compounds
  Inhibition of IL-1β-stimulated production of IL-6, IL-7, MCP-1, TGF-α, TNF-α and VEGF: significantly inhibited
[4]; 18 h
  Effect on IL-1β-stimulated G-CSF production: significantly inhibited
[4]; 18 h, less potency compared to dexamethasone
  Inhibition of IL-1β-stimulated production of GM-CSF, IL-8, and RANTES: significantly inhibited
[5]; 0.1% formulation
  Clinical Score −5 min: 0
  Clinical Score −180 min: 0
[5]; 0.1% formulation, listed as BOL
  Clinical Score +115 min: 2 and 3
[5]; [8]
  Percentage of eyes with clinical score 2: 75%
  Percentage of eyes with clinical score 3: 25%
[5]; 0.1% formulation, −5 min, N=8 eyes
  Percentage of eyes with clinical score 0: 100%
[5]; 0.1% formulation, −180 min (basal), N=8 eyes
  Percentage of eyes with clinical score 0: 100%
[5]; 0.5% formulation
  Clinical Score −5 min: 0
  Clinical Score −180 min: 0
[5]; 0.5% formulation, listed as BOL
  Clinical Score +115 min: 2 and 1
[5]; [9]
  Percentage of eyes with clinical score 1: 37.5%
  Percentage of eyes with clinical score 2: 62.5%
[5]; 0.5% formulation, −5 min, N=8 eyes
  Percentage of eyes with clinical score 0: 100%
[5]; 0.5% formulation, −180 min (basal), N=8 eyes
  Percentage of eyes with clinical score 0: 100%
[5]; 1% formulation
  Clinical Score −5 min: 0
  Clinical Score +115 min: 2
  Clinical Score −180 min: 0
[5]; 1% formulation, +115 min, N=8 eyes
  Percentage of eyes with clinical score 2: 100%
[5]; 1% formulation, −5 min, N=8 eyes
  Percentage of eyes with clinical score 0: 100%
[5]; 1% formulation, −180 min (basal), N=8 eyes
  Percentage of eyes with clinical score 0: 100%
[6]; 1 mg/g suspension, one eye (Group D, No. 3043)
  Slit-lamp ophthalmic finding in dosed right eye: subconjunctival hemorrhage
[6]; 10 mg/g suspension, one eye (Group B, No. 3083)
  Slit-lamp ophthalmic finding in dosed right eye: pinpoint corneal scar
[6]; Group B, 10 mg/g, treated right eye, animal 3083, Day 5
  Surface area of cornea involvement Score: 1 (SURFACE AREA OF CORNEA INVOLVEMENT 1 = 1-25% area of stromal cloudiness.)
[6]; Group B, 10 mg/g, treated right eye, animal 3083, Day 5, pinpoint corneal scar
  Cornea Score: 1^(2)
[6]; [10]
  Conjunctival congestion Score: 1
  Ophthalmic Observation (Slit-Lamp): AN
[6]; [11]
  Conjunctival congestion Score: 1
  Ophthalmic Observation (Slit-Lamp): AN
[6]; Group D, 1 mg/g, treated right eye, individual animal, Day 22
  Conjunctival congestion Score: 1
[6]; Group D, 1 mg/g, treated right eye, individual animals
  Ophthalmic Observation (Slit-Lamp): AN
[6]; four times daily up to 31 days, BOL-303242-X 0.05, 0.25, or 0.5 mg/dose, dexamethasone 0.05 mg/dose
  Ophthalmic observation associated with unilateral topical instillation: sporadic mild conjunctival congestion
